Assays:
LRRK2 WT = target: T1, LRRK2 WT (Homo sapiens, UniProt Q5S007); experiment: LanthaScreen TR-FRET LRRK2 wild-type kinase activity assay; format: biochemical; conditions: 1 nM LRRK2 WT kinase (residues 970 to 2527), 1.3 mM ATP, 0.4 μM fluorescein-LRRKtide, 2 hours at 30° C.; logarithmic average
T1 construct: comprises residues 970 to 2527 of the full length human wild-type LRRK2 kinase; purchased Invitrogen (Life Technologies Corporation)
Procedure: (§1) LRRK2 kinase activity is measured using a LanthaScreen kinase activity assay available from Invitrogen (Life Technologies Corporation). The assay is a homogeneous time resolved-fluorescence resonance energy transfer (TR-FRET) assay that measures phosphorylation of a fluorescein-labelled peptide substrate (fluorescein-LRRKtide, fluorescein-[…]) (SEQ ID NO 1) as a result of LRRK2 kinase activity. The phosphorylated peptide is recognized by a terbium-labelled phospho-specific anti-LRRKtide antibody and, subsequently, the phosphorylated LRRKtide can be quantified by the extent of TR-FRET between the terbium donor and fluorescein acceptor.
(§2) The LRRK2 kinase is obtained from Invitrogen (Life Technologies Corporation) and comprises residues 970 to 2527 of the full length human wild-type LRRK2 kinase or a similar sequence with the G2019S mutation. As discussed above, this mutation increases the kinase activity relative to the wild-type. The kinase reactions are performed in a 20 μL volume in 384-well plates. The kinase reaction buffer consists of 50 mM Tris pH 8.5, 0.01% BRIJ-35, 10 mM MgCl2, 1 mM EGTA, and 2 mM DTT.
(§3) In the assay, 1 nM LRRK2 WT or 250 pM LRRK2 G2019S kinase is incubated with the test compound (typically at 0 to 30 μM) for 30 minutes before the kinase reaction is initiated by addition of 1.3 mM ATP and 0.4 μM fluorescein-LRRKtide. The reaction mixture (20 μl total volume) is incubated for 2 hours at 30° C. before the reaction is terminated by addition of 10 mM EDTA and 1 nM terbium-labelled anti-phospho-LRRKtide antibody (final volume […]). The mixture is further incubated for 30 minutes at RT. TR-FRET is measured by excitation of the terbium-donor with 340 nm light and subsequent (delay time 100 μs) measurement of terbium and fluorescein emission at 495 nm and 520 nm, respectively, over a time window of 1000 μs. The measurement is repeated 10 times for fluorescein and 10 times for terbium emission with a 2000 μs time window between repeats. TR-FRET measurements are performed on a Biomek Synergy plate. The TR-FRET signal is calculated as the emission-ratio at 520 nm over […].
(§4) Test compound potency (IC50) was estimated by nonlinear regression using the sigmoidal dose-response (variable slope) using Xlfit 4 (IDBS, Guildford, Surrey, UK, model 205). y=(A+((B−A)/(1+((C/x)̂D)))), where y is the normalized TR-TRET ratio measurement for a given concentration of test compound, x is the concentration of test compound, A is the estimated efficacy (% inhibition) at infinite compound dilution, and B is the maximal efficacy (% inhibition). C is the IC50 value and D is the Hill slope coefficient. IC50 estimates were obtained from independent experiment and the logarithmic average was calculated.

LRRK2 G2019S = target: T2, LRRK2 G2019S (Homo sapiens, UniProt Q5S007, G2019S); experiment: LanthaScreen TR-FRET LRRK2 G2019S kinase activity assay; format: biochemical; conditions: 250 pM LRRK2 G2019S kinase (residues 970 to 2527), 1.3 mM ATP, 0.4 μM fluorescein-LRRKtide, 2 hours at 30° C.; logarithmic average
T2 construct: purchased Invitrogen (Life Technologies Corporation)
T2 sequence (Q5S007 970-2527 G2019S): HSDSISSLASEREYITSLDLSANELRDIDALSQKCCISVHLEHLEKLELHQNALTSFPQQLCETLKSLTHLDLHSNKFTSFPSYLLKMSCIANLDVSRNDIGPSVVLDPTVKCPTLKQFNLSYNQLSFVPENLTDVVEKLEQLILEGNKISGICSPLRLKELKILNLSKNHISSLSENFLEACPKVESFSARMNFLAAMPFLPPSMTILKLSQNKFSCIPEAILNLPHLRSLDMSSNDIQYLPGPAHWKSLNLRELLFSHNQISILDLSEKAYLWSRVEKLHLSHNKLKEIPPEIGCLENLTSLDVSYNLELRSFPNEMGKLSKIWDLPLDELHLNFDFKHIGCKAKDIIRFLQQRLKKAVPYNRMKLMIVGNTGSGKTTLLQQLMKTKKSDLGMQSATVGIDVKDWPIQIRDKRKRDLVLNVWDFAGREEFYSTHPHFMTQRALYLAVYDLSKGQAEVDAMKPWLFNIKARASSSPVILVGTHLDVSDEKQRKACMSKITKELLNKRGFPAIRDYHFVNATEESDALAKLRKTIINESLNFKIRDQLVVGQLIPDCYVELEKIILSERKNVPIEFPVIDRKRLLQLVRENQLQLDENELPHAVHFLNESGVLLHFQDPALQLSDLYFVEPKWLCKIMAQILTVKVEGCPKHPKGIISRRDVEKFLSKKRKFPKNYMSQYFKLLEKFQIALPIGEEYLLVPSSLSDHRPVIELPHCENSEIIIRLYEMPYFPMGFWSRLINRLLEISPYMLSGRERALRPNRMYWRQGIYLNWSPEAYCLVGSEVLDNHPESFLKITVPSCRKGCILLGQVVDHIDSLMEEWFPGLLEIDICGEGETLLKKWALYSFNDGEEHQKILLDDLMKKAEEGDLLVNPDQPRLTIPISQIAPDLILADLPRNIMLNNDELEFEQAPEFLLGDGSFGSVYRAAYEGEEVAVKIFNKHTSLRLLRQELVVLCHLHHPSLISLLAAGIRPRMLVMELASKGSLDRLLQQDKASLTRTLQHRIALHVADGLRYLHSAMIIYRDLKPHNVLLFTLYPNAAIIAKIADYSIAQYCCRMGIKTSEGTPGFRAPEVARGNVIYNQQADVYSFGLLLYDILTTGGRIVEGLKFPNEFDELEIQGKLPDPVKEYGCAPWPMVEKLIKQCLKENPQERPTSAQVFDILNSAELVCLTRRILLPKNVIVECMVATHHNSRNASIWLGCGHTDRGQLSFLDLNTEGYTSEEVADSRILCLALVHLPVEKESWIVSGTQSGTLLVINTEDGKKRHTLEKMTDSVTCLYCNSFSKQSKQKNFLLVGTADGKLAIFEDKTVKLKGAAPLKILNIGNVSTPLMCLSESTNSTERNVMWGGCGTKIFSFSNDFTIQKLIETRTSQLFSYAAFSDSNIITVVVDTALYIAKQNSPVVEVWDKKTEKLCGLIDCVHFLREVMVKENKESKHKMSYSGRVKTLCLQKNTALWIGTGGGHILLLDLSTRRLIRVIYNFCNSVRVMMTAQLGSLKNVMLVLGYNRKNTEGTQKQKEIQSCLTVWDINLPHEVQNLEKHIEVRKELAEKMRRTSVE
Procedure: as §1, §2, §3, §4

T1 sequence (Q5S007 970-2527): as the sequence (Q5S007 970-2527 G2019S) above, with S1050G counted along it

`COc1cccc(-c2ccnc3[nH]cc(C#N)c23)c1` [Example 1, 4-(3-Methoxyphenyl)-1H-pyrrolo[2,3-b]pyridine-3-carbonitrile] gave an IC50 (LRRK2 WT) of 247 nM and an IC50 (LRRK2 G2019S) of 201 nM.

In the case of `Cc1cccc(-c2ccnc3[nH]cc(C#N)c23)c1` [Example 2, 4-(3-Methylphenyl)-1H-pyrrolo[2,3-b]pyridine-3-carbonitrile], the IC50 (LRRK2 WT) is reported as 170 nM and the IC50 (LRRK2 G2019S) is reported as 195 nM.

Compound `CCc1cccc(-c2ccnc3[nH]cc(C#N)c23)c1` [Example 3, 4-(3-Ethylphenyl)-1H-pyrrolo[2,3-b]pyridine-3-carbonitrile] has an IC50 (LRRK2 WT) of 266 nM and an IC50 (LRRK2 G2019S) of 252 nM.

Compound `N#Cc1c[nH]c2nccc(-c3ccsc3)c12` [Example 4, 4-(Thiophen-3-yl)-1H-pyrrolo[2,3-b]pyridine-3-carbonitrile] has an IC50 (LRRK2 WT) of 1280 nM and an IC50 (LRRK2 G2019S) of 851 nM.

Compound `N#Cc1c[nH]c2nccc(-c3ccc(CN4CCOCC4)cc3)c12` [Example 5, 4-[4-(Morpholin-4-ylmethyl)phenyl]-1H-pyrrolo[2,3-b]pyridine-3-carbonitrile] has an IC50 (LRRK2 WT) of 5440 nM and an IC50 (LRRK2 G2019S) of 1310 nM.

Compound `N#Cc1c[nH]c2nccc(-c3ccn(CN4CCOCC4)c3)c12` [Example 6, 4-[1-(Morpholin-4-ylmethyl)pyrrol-3-yl]-1H-pyrrolo[2,3-b]pyridine-3-carbonitrile] has an IC50 (LRRK2 WT) of 3870 nM and an IC50 (LRRK2 G2019S) of 650 nM.

With `Cc1cc(-c2ccnc3[nH]cc(C#N)c23)ccc1CN1CCOCC1` [Example 7, 4-[3-Methyl-4-(morpholin-4-ylmethyl)phenyl]-1H-pyrrolo[2,3-b]pyridine-3-carbonitrile] the IC50 (LRRK2 WT) was 620 nM and the IC50 (LRRK2 G2019S) was 78 nM.

`Cc1cc(-c2ccnc3[nH]cc(C#N)c23)ccc1CN(C)C` [Example 8, 4-{4-[(Dimethylamino)methyl]-3-methylphenyl}-1H-pyrrolo[2,3-b]pyridine-3-carbonitrile] was tested, and the IC50 (LRRK2 WT) was 549 nM and the IC50 (LRRK2 G2019S) was 288 nM.

`CCc1cc(-c2ccnc3[nH]cc(C#N)c23)ccc1CN1CCOCC1` [Example 9, 4-[3-Ethyl-4-(morpholin-4-ylmethyl)phenyl]-1H-pyrrolo[2,3-b]pyridine-3-carbonitrile] showed an IC50 (LRRK2 WT) of 149 nM and an IC50 (LRRK2 G2019S) of 26 nM.

Compound `COc1cc(-c2ccnc3[nH]cc(C#N)c23)ccc1CN1CCOCC1` [Example 10, 4-[3-Methoxy-4-(morpholin-4-ylmethyl)phenyl]-1H-pyrrolo[2,3-b]pyridine-3-carbonitrile] has an IC50 (LRRK2 WT) of 919 nM and an IC50 (LRRK2 G2019S) of 154 nM.

`N#Cc1c[nH]c2nc(N)cc(-c3ccccc3)c12` [Example 11, 6-Amino-4-phenyl-1H-pyrrolo[2,3-b]pyridine-3-carbonitrile] showed an IC50 (LRRK2 WT) of 216 nM and an IC50 (LRRK2 G2019S) of 240 nM.

In the case of `Cc1cccc(-c2cc(N)nc3[nH]cc(C#N)c23)c1` [Example 12, 6-Amino-4-(3-methylphenyl)-1H-pyrrolo[2,3-b]pyridine-3-carbonitrile], the IC50 (LRRK2 WT) is reported as 15 nM and the IC50 (LRRK2 G2019S) is reported as 17 nM.

With `Cn1ccc(Nc2cc(-c3ccccc3)c3c(C#N)c[nH]c3n2)n1` [Example 13, 6-[(1-Methylpyrazol-3-yl)amino]-4-phenyl-1H-pyrrolo[2,3-b]pyridine-3-carbonitrile] the IC50 (LRRK2 WT) was 48 nM and the IC50 (LRRK2 G2019S) was 58 nM.

`Cc1cccc(-c2cc(Nc3ccn(C)n3)nc3[nH]cc(C#N)c23)c1` [Example 14, 4-(3-Methylphenyl)-6-[(1-methylpyrazol-3-yl)amino]-1H-pyrrolo[2,3-b]pyridine-3-carbonitrile] was tested, and the IC50 (LRRK2 WT) was 1 nM and the IC50 (LRRK2 G2019S) was 2 nM.

Work on `Cc1cc(-c2cc(Nc3ccn(C)n3)nc3[nH]cc(C#N)c23)ccc1CN1CCOCC1` [Example 15, 4-[3-Methyl-4-(morpholin-4-ylmethyl)phenyl]-6-[(1-methylpyrazol-3-yl)amino]-1H-pyrrolo[2,3-b]pyridine-3-carbonitrile] yielded an IC50 (LRRK2 WT) of 4 nM and an IC50 (LRRK2 G2019S) of 1 nM.

`Cn1cc(Nc2cc(-c3ccccc3)c3c(C#N)c[nH]c3n2)cn1` [Example 16, 6-[(1-Methylpyrazol-4-yl)amino]-4-phenyl-1H-pyrrolo[2,3-b]pyridine-3-carbonitrile] was tested, and the IC50 (LRRK2 WT) was 97 nM and the IC50 (LRRK2 G2019S) was 164 nM.

`N#Cc1c[nH]c2nc(Nc3ccccn3)cc(-c3ccccc3)c12` [Example 17, 4-Phenyl-6-(pyridin-2-ylamino)-1H-pyrrolo[2,3-b]pyridine-3-carbonitrile] was tested, and the IC50 (LRRK2 WT) was 340 nM and the IC50 (LRRK2 G2019S) was 527 nM.

`Cc1cncc(-c2cc(Nc3nn(C)cc3C(F)(F)F)nc3[nH]cc(C#N)c23)c1` [Example 18, 6-{[1-Methyl-4-(trifluoromethyl)-1H-pyrazol-3-yl]amino}-4-(5-methylpyridin-3-yl)-1H-pyrrolo[2,3-b]pyridine-3-carbonitrile] was tested, and the IC50 (LRRK2 WT) was 358 nM and the IC50 (LRRK2 G2019S) was 509 nM.

`Cc1ccnc(-c2cc(Nc3nn(C)cc3Cl)nc3[nH]cc(C#N)c23)c1` [Example 19, 6-[(4-Chloro-1-methyl-1H-pyrazol-3-yl)amino]-4-(4-methylpyridin-2-yl)-1H-pyrrolo[2,3-b]pyridine-3-carbonitrile] gave an IC50 (LRRK2 WT) of 145 nM and an IC50 (LRRK2 G2019S) of 215 nM.

In the case of `Cc1cccc(-c2cc(Nc3nn(C)cc3C)nc3[nH]cc(C#N)c23)n1` [Example 20, 6-[(1,4-Dimethyl-1H-pyrazol-3-yl)amino]-4-(6-methylpyridin-2-yl)-1H-pyrrolo[2,3-b]pyridine-3-carbonitrile], the IC50 (LRRK2 WT) is reported as 36 nM and the IC50 (LRRK2 G2019S) is reported as 50 nM.

Compound `Cc1cccc(-c2cc(Nc3nn(C)cc3C(F)(F)F)nc3[nH]cc(C#N)c23)n1` [Example 21, 6-{[1-Methyl-4-(trifluoromethyl)-1H-pyrazol-3-yl]amino}-4-(6-methylpyridin-2-yl)-1H-pyrrolo[2,3-b]pyridine-3-carbonitrile] has an IC50 (LRRK2 WT) of 393 nM and an IC50 (LRRK2 G2019S) of 575 nM.

`Cc1cncc(-c2cc(Nc3ccn(C)n3)nc3[nH]cc(C#N)c23)c1` [Example 22, 6-[(1-Methyl-1H-pyrazol-3-yl)amino]-4-(5-methylpyridin-3-yl)-1H-pyrrolo[2,3-b]pyridine-3-carbonitrile] showed an IC50 (LRRK2 WT) of 27 nM and an IC50 (LRRK2 G2019S) of 37 nM.

Work on `Cc1cc(-c2cc(Nc3nn(C)cc3C)nc3[nH]cc(C#N)c23)ccn1` [Example 23, 6-[(1,4-Dimethyl-1H-pyrazol-3-yl)amino]-4-(2-methylpyridin-4-yl)-1H-pyrrolo[2,3-b]pyridine-3-carbonitrile] yielded an IC50 (LRRK2 WT) of 215 nM and an IC50 (LRRK2 G2019S) of 108 nM.
